Measurements taken from patent publication US12590099B2, “Inhibitors of histone deacetylase useful for the treatment or prevention of HIV infection” (Merck Sharp & Dohme LLC, priority 2018, dated 2026).
Read-outs that look alike come from different tables or passages of the source.

Columns and labels:
HDAC6 = biological target: T1, HDAC6 (Homo sapiens, UniProt Q9UBN7); test: Human HDAC enzyme inhibitor Fluor-de-Lys assay, HDAC6; format: biochemical
T1 sequence (Q9UBN7 1-1215): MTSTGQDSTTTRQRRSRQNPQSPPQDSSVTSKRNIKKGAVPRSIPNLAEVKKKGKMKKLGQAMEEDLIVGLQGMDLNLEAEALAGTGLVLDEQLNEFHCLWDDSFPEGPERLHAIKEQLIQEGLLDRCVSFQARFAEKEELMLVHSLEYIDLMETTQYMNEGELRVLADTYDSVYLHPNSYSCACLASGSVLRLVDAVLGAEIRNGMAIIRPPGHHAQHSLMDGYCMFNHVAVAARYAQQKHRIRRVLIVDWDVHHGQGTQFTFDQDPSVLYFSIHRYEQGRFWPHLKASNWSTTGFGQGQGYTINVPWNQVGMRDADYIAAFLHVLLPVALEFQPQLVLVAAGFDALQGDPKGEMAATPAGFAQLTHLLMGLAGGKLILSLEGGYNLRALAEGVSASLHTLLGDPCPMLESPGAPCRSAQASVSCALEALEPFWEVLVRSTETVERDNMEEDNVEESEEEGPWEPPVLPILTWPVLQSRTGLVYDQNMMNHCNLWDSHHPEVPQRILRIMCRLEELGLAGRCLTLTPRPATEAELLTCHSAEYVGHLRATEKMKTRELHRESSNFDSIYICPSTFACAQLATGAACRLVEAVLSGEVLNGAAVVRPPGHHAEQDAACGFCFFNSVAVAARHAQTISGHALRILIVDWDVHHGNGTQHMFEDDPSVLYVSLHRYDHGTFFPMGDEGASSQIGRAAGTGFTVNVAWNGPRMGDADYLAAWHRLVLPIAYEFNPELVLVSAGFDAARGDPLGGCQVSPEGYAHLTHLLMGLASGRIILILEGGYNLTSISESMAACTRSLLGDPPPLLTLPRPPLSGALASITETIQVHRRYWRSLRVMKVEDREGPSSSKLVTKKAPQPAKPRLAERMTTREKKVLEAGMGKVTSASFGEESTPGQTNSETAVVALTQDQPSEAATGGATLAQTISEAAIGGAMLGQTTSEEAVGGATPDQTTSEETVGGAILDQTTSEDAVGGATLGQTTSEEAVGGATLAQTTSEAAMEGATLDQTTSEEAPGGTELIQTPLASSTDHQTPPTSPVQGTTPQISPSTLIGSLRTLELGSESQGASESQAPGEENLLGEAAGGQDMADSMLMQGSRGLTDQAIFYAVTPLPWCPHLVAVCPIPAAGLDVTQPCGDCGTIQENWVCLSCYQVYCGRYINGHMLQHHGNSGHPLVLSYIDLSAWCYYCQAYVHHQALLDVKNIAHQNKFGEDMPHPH

[1] = biological target: T2, Recombinant human HDAC3/SMRT heterodimer (Homo sapiens, UniProt O15379); test: Human HDAC enzyme inhibitor Fluor-de-Lys assay, HDAC3/SMRT; format: biochemical
T2 construct: FLAG (C); made in house

[2] = recombinant human HDAC3/SMRT, Fluor-de-Lys assay

T2 sequence (O15379 whole entry): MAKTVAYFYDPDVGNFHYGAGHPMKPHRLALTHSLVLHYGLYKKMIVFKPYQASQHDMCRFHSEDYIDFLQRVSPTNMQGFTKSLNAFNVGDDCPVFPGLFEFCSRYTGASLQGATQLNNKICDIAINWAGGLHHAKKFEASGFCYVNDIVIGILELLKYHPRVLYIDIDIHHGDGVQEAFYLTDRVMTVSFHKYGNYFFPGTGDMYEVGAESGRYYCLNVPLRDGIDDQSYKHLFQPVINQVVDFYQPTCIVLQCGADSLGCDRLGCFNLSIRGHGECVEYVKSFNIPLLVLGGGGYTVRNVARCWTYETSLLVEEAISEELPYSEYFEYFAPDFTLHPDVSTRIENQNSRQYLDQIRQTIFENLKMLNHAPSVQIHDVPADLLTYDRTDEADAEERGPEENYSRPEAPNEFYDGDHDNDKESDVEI
T2 sequence (Q9Y618 1-899 partner limits assumed): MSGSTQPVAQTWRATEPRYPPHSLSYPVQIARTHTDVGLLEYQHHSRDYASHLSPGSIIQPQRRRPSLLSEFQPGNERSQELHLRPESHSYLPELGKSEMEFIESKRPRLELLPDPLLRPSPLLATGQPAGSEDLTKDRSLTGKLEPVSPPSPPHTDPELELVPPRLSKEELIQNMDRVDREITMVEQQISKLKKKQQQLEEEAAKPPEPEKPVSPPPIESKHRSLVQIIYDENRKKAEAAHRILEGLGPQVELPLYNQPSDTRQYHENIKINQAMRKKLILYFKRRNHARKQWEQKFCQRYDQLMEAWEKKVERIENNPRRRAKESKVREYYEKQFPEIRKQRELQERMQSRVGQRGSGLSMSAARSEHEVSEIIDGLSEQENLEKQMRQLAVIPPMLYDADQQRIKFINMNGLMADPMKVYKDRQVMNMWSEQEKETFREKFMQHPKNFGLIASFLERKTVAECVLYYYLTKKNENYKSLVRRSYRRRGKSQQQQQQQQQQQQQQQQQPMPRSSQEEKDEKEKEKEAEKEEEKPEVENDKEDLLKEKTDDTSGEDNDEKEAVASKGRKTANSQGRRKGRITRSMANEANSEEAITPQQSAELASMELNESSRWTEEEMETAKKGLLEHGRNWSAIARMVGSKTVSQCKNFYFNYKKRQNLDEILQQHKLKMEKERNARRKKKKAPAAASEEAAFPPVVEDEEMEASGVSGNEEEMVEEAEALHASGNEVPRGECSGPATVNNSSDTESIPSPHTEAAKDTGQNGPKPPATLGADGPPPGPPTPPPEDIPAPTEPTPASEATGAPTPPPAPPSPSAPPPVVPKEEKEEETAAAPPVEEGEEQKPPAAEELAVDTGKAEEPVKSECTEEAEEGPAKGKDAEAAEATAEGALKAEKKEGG

Compound | IC50 (HDAC6; HDAC6, Fluor-de-Lys assay) [nM] | IC50 [1, 2] [nM] | IC50 [1] [nM] | IC50 (HDAC6) [nM]
CCC(=O)CCCCC[C@H](NC(=O)[C@H]1CC12CN(C)C2)c1ncc(-c2cc3ccc(C)nc3cc2OC)o1 (single isomer, unassigned) [Compound 230] | 396 | – | – | –
CCC(=O)CCCCC[C@H](NC(=O)[C@@H]1CC12CN(C)C2)c1ncc(-c2cc3ccc(C)nc3cc2OC)o1 (single isomer, unassigned) [Compound 231] | 220 | – | – | –
CCC(=O)CCCCC[C@H](NC(=O)C1CC12CC1CCC(C2)N1C)c1ncc(-c2ccc3ncccc3c2)[nH]1 (single isomer, unassigned) [Compound 242] | 133 | < 1.5 | – | –
CCC(=O)CCCCC[C@H](NC(=O)[C@H]1CC12CCN(C)CC2)c1ncc(-c2ccc3nc(C(F)(F)F)ccc3c2)o1 [Compound 78, (1S)-6-methyl-N-[(1S)-7-oxo-1-{5-[2-(trifluoromethyl)quinolin-6-yl]-1,3-oxazol-2-yl}nonyl]-6-azaspiro[2.5]octane-1-carboxamide] | – | – | 13.8 | 33500
CCC(=O)CCCCC[C@H](NC(=O)[C@H]1CC12CCN(C)CC2)c1ncc(-c2ccc3nc(C)ccc3c2)o1 [Compound 80] | – | – | 2.96 | 1680
CCC(=O)CCCCC[C@H](NC(=O)[C@H]1CC12CCN(C)CC2)c1nc(Cl)c(-c2cc3ccccc3nc2O)[nH]1 [Compound 81, (1S)—N-{(1S)-1-[4-chloro-5-(2-hydroxyquinolin-3-yl)-1H-imidazol-2-yl]-7-oxononyl}-6-methyl-6-azaspiro[2.5]octane-1-carboxamide] | – | – | 69 | 3870
CCC(=O)CCCCC[C@H](NC(=O)[C@H]1CC12CCN(C(C)C)CC2)c1ncc(-c2ccc3nc(C)ccc3c2)[nH]1 [Compound 83] | – | – | < 1.5 | 2620
CN1CCC2(CC1)C[C@@H]2C(=O)N[C@@H](CCCCCC(=O)CC1CC1)c1ncc(-c2ccc(F)cc2)[nH]1 [Compound 84] | – | – | 16.3 | 3780
CCC(=O)CCCCC[C@H](NC(=O)[C@H]1CC12CCN(C)CC2)c1ncc(-c2coc3ccccc3c2=O)[nH]1 [Compound 86] | – | – | 12.1 | 3330
CCC(=O)CCCCC[C@H](NC(=O)[C@H]1CC12CCN(C)CC2)c1ncc(-c2ccc3ncoc3c2)[nH]1 [Compound 89] | – | – | 2.27 | 7590
CCC(=O)CCCCC[C@H](NC(=O)[C@H]1CC12CCN(C)CC2)c1ncc(-c2ccc3cc(C#N)ccc3c2)[nH]1 [Compound 90] | – | – | 0.38 | 1010
CCC(=O)CCCCC[C@H](NC(=O)[C@H]1CC12CCN(C)CC2)c1[nH]c(-c2ccc(F)cc2)nc1Cl [Compound 91] | – | – | 3.26 | 27500
CCC(=O)CCCCC[C@H](NC(=O)[C@H]1CC12CCN(CC)CC2)c1ncc(-c2ccc(-c3nccs3)cc2)o1 [Compound 93] | – | – | 5.76 | 955
CCC(=O)CCCCC[C@H](NC(=O)[C@H]1CC12CCN(CC)CC2)c1ncc(-c2ccc(-c3ncco3)cc2)o1 [Compound 94] | – | – | 4.01 | 2300
CCC(=O)CCCCC[C@H](NC(=O)[C@H]1CC12CCN(CC)CC2)c1ncc(-c2ccc(-n3cccn3)cc2)o1 [Compound 95] | – | – | 3.95 | 1250
CCC(=O)CCCCC[C@H](NC(=O)[C@H]1CC12CCN(C(C)C)CC2)c1ncc(-c2ccc3c(ccc(=O)n3C)c2)o1 [Compound 96] | – | – | 9.9 | 7300
CCC(=O)CCCCC[C@H](NC(=O)[C@H]1CC12CCN(CC)CC2)c1ncc(-c2ccc3c(ccc(=O)n3C)c2)o1 [Compound 97] | – | – | 4.38 | 7090
CCC(=O)CCCCC[C@H](NC(=O)[C@H]1CC12CCN(C(C)C)CC2)c1ncc(-c2cc3ccccc3nc2OC)o1 [Compound 99] | – | – | – | 110
CCC(=O)CCCCC[C@H](NC(=O)[C@H]1CC12CCN(C(C)C)CC2)c1ncc(-c2ccc3nc(C4CC4)ccc3c2)[nH]1 [Compound 100] | – | – | < 1.5 | 11900
CCC(=O)CCCCC[C@H](NC(=O)C1=NOC2(CCN(C)CC2)C1)c1ncc(-c2ccc(-c3cccnc3)cc2OC)o1 [Compound 222, N-{(1S)-1-[5-(2-methoxy-4-pyridin-3-ylphenyl)-1,3-oxazol-2-yl]-7-oxononyl}-8-methyl-1-oxa-2,8-diazaspiro[4.5]dec-2-ene-3-carboxamide] | > 900 | 4.67 | – | –
CCC(=O)CCCCC[C@H](NC(=O)C1=NOC2(CCN(C)CC2)C1)c1ncc(-c2cc3cccnc3cc2OC)o1 [Compound 223] | 237 | 2.06 | – | –
CCC(=O)CCCCC[C@H](N)c1ncc(-c2cc3ccc(=O)n(C)c3cc2OC)o1 [Compound 224] | > 900 | 92.1 | – | –

Compound | IC50 (HDAC6; HDAC6, Fluor-de-Lys assay) [nM] | IC50 [1, 2] [nM] | IC50 [1] [nM] | IC50 (HDAC6) [nM]
CCC(=O)CCCCC[C@H](NC(=O)C1=NOC2(CCN(CC3CC3)CC2)C1)c1ncc(-c2cc3ccc(C)nc3cc2OC)o1 [Compound 225] | 759 | 1.14 | – | –
CCC(=O)CCCCC[C@H](NC(=O)[C@H]1CC12CCN(CC1CC1)CC2)c1ncc(-c2cc3ccc(C)nc3cc2F)[nH]1 [Compound 228] | > 900 | 0.19 | – | –
CCC(=O)CCCCC[C@H](NC(=O)[C@H]1CC12CCN(CC1CC1)CC2)c1ncc(-c2cc3ccn(C)c(=O)c3cc2OC)o1 [Compound 229] | 451 | 0.21 | – | –
CCC(=O)CCCCC[C@H](NC(=O)C1=NOC2(CCN(C)CC2)C1)c1ncc(-c2cc3ccc(C)nc3cc2F)[nH]1 [Compound 232] | > 900 | 4.47 | – | –
CCC(=O)CCCCC[C@H](NC(=O)C1=NOC2(CCN(CC)CC2)C1)c1ncc(-c2cc3ccc(C)nc3cc2F)[nH]1 [Compound 233] | > 900 | 8.8 | – | –
CCC(=O)CCCCC[C@H](NC(=O)C1=NOC2(CCN(CC3CC3)CC2)C1)c1ncc(-c2cc3ccc(C)nc3cc2F)[nH]1 [Compound 234] | > 900 | 2.99 | – | –
CCC(=O)CCCCC[C@H](NC(=O)C1=NOC2(CCN(CC)CC2)C1)c1ncc(-c2cc3ccc(=O)n(C)c3cc2OC)o1 [Compound 235] | > 900 | 2.19 | – | –
CCC(=O)CCCCC[C@H](NC(=O)C1CC12CCN(CC)CC2)c1nc(-c2ccc(F)cc2)[nH]c1-c1cnn(C)c1 (stereo partly drawn) [Compound 248] | > 45000 | – | – | –
CCC(=O)CCCCC[C@H](NC(=O)C1CC12CCN(CC)CC2)c1nc(-c2ccc(F)cc2)[nH]c1-c1ccsc1 (stereo partly drawn) [Compound 250] | 21900 | – | – | –
CCC(=O)CCCCC[C@H](NC(=O)[C@H]1CC12CCN(C)CC2)c1ncc(-c2cnc(-n3cc(C)cn3)nc2)[nH]1 [Compound 257] | 36600 | – | – | –
CCC(=O)CCCCC[C@H](NC(=O)[C@H]1CC12CCN(C)CC2)c1ncc(-c2ccc(C(=O)NC3CCOC3)cc2)[nH]1 (stereo partly drawn) [Compound 258] | 38700 | – | – | –
CCC(=O)CCCCC[C@H](NC(=O)[C@H]1CC12CCN(C)CC2)c1ncc(-c2cnc3cccnc3c2)[nH]1 [Compound 259] | 3140 | – | – | –
CCC(=O)CCCCC[C@H](NC(=O)[C@H]1CC12CCN(C)CC2)c1ncc(-c2ccc(-n3nc(C)cc3C)cc2)[nH]1 [Compound 260] | 28400 | – | – | –
CCC(=O)CCCCC[C@H](NC(=O)[C@H]1CC12CCN(C)CC2)c1ncc(-c2ccnc(N3CCOCC3)c2F)[nH]1 [Compound 261] | 2470 | – | – | –
CCC(=O)CCCCC[C@H](NC(=O)[C@H]1CC12CCN(C)CC2)c1ncc(-c2ccc(-c3cccnc3)nc2)[nH]1 [Compound 262] | 33500 | – | – | –
CCC(=O)CCCCC[C@H](NC(=O)[C@H]1CC12CCN(C)CC2)c1ncc(-c2cn(C)c3ccccc23)[nH]1 [Compound 264] | 1710 | – | – | –
CCOc1ncc(-c2cnc([C@H](CCCCCC(=O)CC)NC(=O)[C@H]3CC34CCN(C)CC4)[nH]2)cn1 [Compound 266] | 42500 | – | – | –
CCC(=O)CCCCC[C@H](NC(=O)[C@H]1CC12CCN(C)CC2)c1ncc(-c2ccc(C)nc2OC)[nH]1 [Compound 268] | 1780 | – | – | –
CCC(=O)CCCCC[C@H](NC(=O)[C@@H]1CC12CCN(C)CC2)c1nnc(-c2cc3ccccc3nc2OC)o1 [Compound 305] | 636 | – | – | –
CCC(=O)CCCCC[C@H](NC(=O)[C@H]1CC12CCN(C)CC2)c1nnc(-c2cc3ccccc3nc2OC)o1 [Compound 306] | 1170 | – | – | –
CCC(=O)CCCCC[C@H](NC(=O)CC1CC2(C1)CN(C)C2)c1ncc(-c2cc3ccccc3nc2OC)[nH]1 [Compound 314] | 405 | – | – | –
